ChEMBL document CHEMBL1201862, “PubChem BioAssay data set” (2004)
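Test compounds were applied to cells in 96-well plates for 48 hours at 5 doses. GI50 = concentration required for 50% inhibition of growth.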 Activity calls are given as the source filed them. Rule as the data show it: active = GI50 up to about 1.1 µM and inactive = higher.

Assays:
Experiment in all cases: growth of human tumour cells (NCI), 48 h
HL-60 = test system: HL-60
RPMI-8226 = test system: RPMI-8226
OVCAR-3 = test system: OVCAR-3
SK-OV-3 = test system: SK-OV-3
SN12C = test system: SN12C
Malme-3M = test system: Malme-3M
A549 = test system: A549
NCI-H522 = test system: NCI-H522
CCRF-CEM = test system: CCRF-CEM
CAKI-1 = test system: CAKI-1
SF-295 = test system: SF-295
M14 = test system: M14
SW-620 = test system: SW-620
K562 = test system: K562
UACC-257 = test system: UACC-257
COLO 205 = test system: COLO 205
NCI-H226 = test system: NCI-H226
OVCAR-8 = test system: OVCAR-8
SNB-75 = test system: SNB-75
EKVX = test system: EKVX

Measured: GI50

N#Cc1c(Cl)cc(Cl)n2c1nc1ccccc12
inactive: HL-60 1.31 µM | RPMI-8226 4.27 µM | OVCAR-3 6 µM | SK-OV-3 16.9 µM | SN12C 15.3 µM | Malme-3M 2.76 µM | A549 17.3 µM | NCI-H522 2.29 µM | CCRF-CEM 2.49 µM | CAKI-1 3.43 µM | SF-295 17.3 µM | M14 8.53 µM | SW-620 3.15 µM | K562 2.61 µM | UACC-257 10.3 µM | COLO 205 3.52 µM | NCI-H226 13.8 µM | OVCAR-8 15.3 µM | SNB-75 14 µM | EKVX 23.1 µM

Nc1c(-c2cn(Cc3ccccc3)c3ccccc23)[n+]([O-])c2ccccc2[n+]1[O-]
inactive: HL-60 9.46 µM | RPMI-8226 24.6 µM | OVCAR-3 19.8 µM | SK-OV-3 24.8 µM | SN12C 31.8 µM | Malme-3M 29.7 µM | A549 30.8 µM | NCI-H522 13.2 µM | CCRF-CEM 27.1 µM | CAKI-1 16 µM | SF-295 21.9 µM | M14 25.4 µM | SW-620 51.4 µM | K562 24.5 µM | UACC-257 12.8 µM | COLO 205 35.3 µM | NCI-H226 6.35 µM | OVCAR-8 45.4 µM | SNB-75 16.4 µM | EKVX 32.6 µM

N#C/C(=C1\OC(=O)C(c2ccc(Br)cc2)=C1O)c1ccc(Br)cc1
inactive: HL-60 11.6 µM | RPMI-8226 15.1 µM | OVCAR-3 14.9 µM | SK-OV-3 18.5 µM | SN12C 11.2 µM | Malme-3M 16.9 µM | A549 18 µM | NCI-H522 12.4 µM | CCRF-CEM 11.1 µM | CAKI-1 17.3 µM | SF-295 17.7 µM | M14 14.8 µM | SW-620 14.3 µM | K562 19.3 µM | UACC-257 15.3 µM | COLO 205 17.9 µM | NCI-H226 18.1 µM | OVCAR-8 12.1 µM | SNB-75 17.6 µM | EKVX 17.5 µM
